The target of assay [1] is T1, Methionine aminopeptidase 1 (Saccharomyces cerevisiae S288c, UniProt Q01662).
T1 sequence (Q01662 whole entry): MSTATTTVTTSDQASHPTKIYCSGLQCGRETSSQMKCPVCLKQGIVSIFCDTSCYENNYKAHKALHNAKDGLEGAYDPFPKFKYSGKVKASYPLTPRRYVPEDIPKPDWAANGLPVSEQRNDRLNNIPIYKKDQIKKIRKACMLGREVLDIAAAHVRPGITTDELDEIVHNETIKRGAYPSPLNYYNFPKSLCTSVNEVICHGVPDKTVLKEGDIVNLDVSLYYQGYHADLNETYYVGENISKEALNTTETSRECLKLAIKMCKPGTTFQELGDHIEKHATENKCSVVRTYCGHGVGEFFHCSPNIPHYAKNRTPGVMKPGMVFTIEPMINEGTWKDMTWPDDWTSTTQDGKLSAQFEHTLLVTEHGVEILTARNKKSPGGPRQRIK
Description: Inhibitory concentration against ScMetAP1 enzyme activity.

Assay [2] addresses T2, Methionine aminopeptidase (Escherichia coli K-12, UniProt P0AE18).
T2 sequence (P0AE18 whole entry): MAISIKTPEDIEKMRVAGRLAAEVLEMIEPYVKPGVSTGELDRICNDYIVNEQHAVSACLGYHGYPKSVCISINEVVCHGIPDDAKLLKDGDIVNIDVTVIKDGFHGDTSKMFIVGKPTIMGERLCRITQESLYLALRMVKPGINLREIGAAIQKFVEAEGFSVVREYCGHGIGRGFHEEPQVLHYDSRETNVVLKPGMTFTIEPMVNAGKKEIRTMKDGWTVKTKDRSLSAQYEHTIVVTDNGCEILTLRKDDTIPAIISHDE
Description: Inhibitory concentration against EcMetAP1 enzyme activity.

On to `CO[C@@H](Cc1scnc1C(=O)Nc1nccs1)c1ccccc1`, for which the IC50 in assay [1] came to 450 nM; in assay [2] it was 66 nM.
As for `O=C(Nc1nccs1)c1ncsc1CN1CCOCC1`, the IC50 in assay [1] is 1760 nM; in assay [2], 55 nM.
For `COC(C)(C)Cc1scnc1C(=O)Nc1nccs1`, the IC50 in assay [1] was found to be 3210 nM; in assay [2] it was 69 nM.
For `O=C(Nc1nccs1)c1ncsc1CN1CCCCC1`, the IC50 stood at 75 nM in assay [1] and 10 nM in assay [2].
On to `O=C(Nc1nccs1)c1ncsc1CCN1CCCCC1`, for which the figures for the half-inhibitory concentration (IC50) in assay [1] and in assay [2] were 410 nM and 45 nM, respectively.
Taken in the same sequence, the figures for `O=C(OCCc1scnc1C(=O)Nc1nccs1)c1ccccc1` were 3080 nM and 41 nM.
Taken in the same sequence, the figures for `CC(=O)OCCc1scnc1C(=O)Nc1nccs1` were 17900 nM and 310 nM.
For the compound `Cc1ccc(S(=O)(=O)OCCc2scnc2C(=O)Nc2nccs2)cc1`, the results for the half-inhibitory concentration (IC50) in assay [1] and in assay [2] were 3720 nM and 1530 nM, respectively.
With `O=C(Nc1nccs1)c1ncsc1CN1CCCC1`, the values for the half-maximal inhibitory concentration (IC50) in assay [1] and in assay [2] were 350 nM and 25 nM, respectively.
`COc1ccc(C(Cc2scnc2C(=O)Nc2nccs2)OC)cc1` (centres undefined): the IC50 in assay [1] stood at 310 nM; in assay [2], 23 nM.
Taken in the same sequence, the figures for `O=C(COCc1ccccc1)OCCc1scnc1C(=O)Nc1nccs1` were 550 nM and 130 nM.
Consider `CCCCC(Cc1scnc1C(=O)Nc1nccs1)OC` (centres undefined), for which the values for the IC50 in assay [1] and in assay [2] were 450 nM and 100 nM, respectively.
Consider `COC(Cc1scnc1C(=O)Nc1nccs1)c1ccccc1F` (centres undefined), for which the IC50 in assay [1] stood at 270 nM; in assay [2] it was 34 nM.
As for `O=C(Nc1nccs1)c1ncsc1CCOCc1ccccc1`, the IC50 in assay [1] worked out at 4250 nM; in assay [2] it was 90 nM.
In the case of `COC(c1ccccc1)c1scnc1C(=O)Nc1nccs1` (centres undefined), the IC50 in assay [1] was found to be 750 nM; in assay [2], 61 nM.
With `COC(Cc1scnc1C(=O)Nc1nccs1)C1CCCCC1` (centres undefined), the figures for the IC50 in assay [1] and in assay [2] were 400 nM and 54 nM, respectively.
Taken in the same sequence, the figures for `COC(Cc1scnc1C(=O)Nc1nccs1)c1cccc(Cl)c1` (centres undefined) were 520 nM and 90 nM.
`CO[C@H](Cc1scnc1C(=O)Nc1nccs1)c1ccccc1`: the IC50 in assay [1] is 450 nM; in assay [2] it was 36 nM.
Taken in the same sequence, the figures for `COc1ccccc1C(Cc1scnc1C(=O)Nc1nccs1)OC` (centres undefined) were 570 nM and 35 nM.
Regarding `COc1cc(C(=O)OCCc2scnc2C(=O)Nc2nccs2)cc(OC)c1OC`, the results for the IC50 in assay [1] and in assay [2] were 1560 nM and 160 nM, respectively.
As for `COC(Cc1scnc1C(=O)Nc1nccs1)c1cccc(F)c1` (centres undefined), the IC50 in assay [1] stood at 340 nM; in assay [2], 37 nM.
For `O=C(Nc1nccs1)c1ncsc1CCOC(=O)C1CCCC1` the same measures were 800 nM and 140 nM.
On to `CCOC(Cc1scnc1C(=O)Nc1nccs1)C(C)C` (centres undefined), for which the IC50 turned out to be 150 nM in assay [1] and 28 nM in assay [2].
Taken in the same sequence, the figures for `COC(Cc1scnc1C(=O)Nc1nccs1)CC(C)C` (centres undefined) were 500 nM and 90 nM.
Regarding `COCc1scnc1C(=O)Nc1nccs1`, the results for the IC50 in assay [1] and in assay [2] were 7530 nM and 97 nM, respectively.
Regarding `COC(Cc1scnc1C(=O)Nc1nccs1)c1ccccc1` (centres undefined), the IC50 in assay [1] was found to be 440 nM; in assay [2], 43 nM.
For the compound `O=C(Nc1nccs1)c1ncsc1CCO`, the IC50 in assay [1] worked out at 10400 nM; in assay [2], 470 nM.
Taken in the same sequence, the figures for `COCCc1scnc1C(=O)Nc1nccs1` were 6430 nM and 150 nM.
On to `O=C(Cc1ccccc1)OCCc1scnc1C(=O)Nc1nccs1`, for which the IC50 came out at 6040 nM in assay [1] and 33 nM in assay [2].
Consider `COC(Cc1scnc1C(=O)Nc1nccs1)c1ccc(Cl)cc1` (centres undefined), for which the IC50 worked out at 570 nM in assay [1] and 33 nM in assay [2].
For `COC(Cc1scnc1C(=O)Nc1nccs1)c1ccccc1Cl` (centres undefined) the same measures were 230 nM and 170 nM.
Regarding `COC(Cc1scnc1C(=O)Nc1nccs1)c1ccc(F)cc1` (centres undefined), the IC50 amounted to 390 nM in assay [1] and 57 nM in assay [2].

These data come from ChEMBL document CHEMBL1142821, “Identification of potent type I MetAPs inhibitors by simple bioisosteric replacement. Part 2: SAR studies of 5-heteroalkyl substituted TCAT derivatives” (Bioorg Med Chem Lett, 2005).
